The target in this assay is HIV-1 protease (Human immunodeficiency virus type 1 group M subtype B, UniProt P04585). The assay is described as follows: Inhibition constants against HIV-1 protease (method of Pennington et al.). The format is biochemical. The note with it: HIV-1 protease; read-out: Ki value. The source says: We measured the inhibition constants of the compounds listed in Table VII against HIV-1 protease using the above-cited method of Pennington et al.
Usually Ki stands for the equilibrium dissociation constant of an inhibitor or competing ligand from its target. With `NC(=O)C[C@H](NC(=O)c1ccc2ccccc2n1)C(=O)N[C@@H](Cc1ccccc1)[C@H](O)CN(Cc1ccccc1)S(=O)(=O)c1ccccc1` [Compound 1], the Ki amounted to 4 nM.
In the case of `Cc1noc(C)c1S(=O)(=O)N(Cc1ccccc1)C[C@@H](O)[C@H](Cc1ccccc1)NC(=O)[C@H](CC(N)=O)NC(=O)c1ccc2ccccc2n1` [Compound 3] it was 32 nM; in that of `NC(=O)C[C@H](NC(=O)c1ccc2ccccc2n1)C(=O)N[C@@H](Cc1ccccc1)[C@H](O)CN(Cc1ccccc1)S(=O)(=O)c1cccc(C(F)(F)F)c1` [Compound 4], 19 nM; in that of `CC(=O)Nc1nc(C)c(S(=O)(=O)N(Cc2ccccc2)C[C@@H](O)[C@H](Cc2ccccc2)NC(=O)[C@H](CC(N)=O)NC(=O)c2ccc3ccccc3n2)s1` [Compound 5], 2 nM.
Take `NC(=O)C[C@H](NC(=O)c1ccc2ccccc2n1)C(=O)N[C@@H](Cc1ccccc1)[C@H](O)CN(Cc1ccccc1)S(=O)(=O)c1ccc(-c2ccon2)s1` [Compound 6, (S)-N-1-(1-Benzyl-3-(benzyl-(5-isoxazol-3-yl-thiophene-2-sulfonyl)-amino)-(1S,2 syn)-1-benzyl-2-hydroxy-propyl)-2-((quinoline-2-carbonyl)-amino)-succinamide]: the inhibition constant (Ki) is 3 nM.
For `NC(=O)C[C@H](NC(=O)c1ccc2ccccc2n1)C(=O)N[C@@H](Cc1ccccc1)[C@H](O)CN(Cc1ccccc1)S(=O)(=O)c1cccc(C(=O)O)c1` [Compound 7] the value was 8 nM; for `CS(=O)(=O)N(Cc1ccccc1)C[C@@H](O)[C@H](Cc1ccccc1)NC(=O)[C@H](CC(N)=O)NC(=O)c1ccc2ccccc2n1` [Compound 8], 850 nM; for `NC(=O)C[C@H](NC(=O)c1ccc2ccccc2n1)C(=O)N[C@@H](Cc1ccccc1)[C@H](O)CN(Cc1ccccc1)S(=O)(=O)c1cccc2nonc12` [Compound 9, (S)-N-1-(3-((Benzo(1,2,5)oxadiazole-4-sulfonyl)-benzyl-amino)-(1S,2 syn)-1-benzyl-2-hydroxy-propyl)-2-((quinoline-2-carbonyl)-amino)-succinamide], 4 nM.
For `NC(=O)C[C@H](NC(=O)c1ccc2ccccc2n1)C(=O)N[C@@H](Cc1ccccc1)[C@H](O)CN(Cc1ccccc1)S(=O)(=O)c1cccc(S(N)(=O)=O)c1` [Compound 10, N-1-(1-(S)-Benzyl-3-(benzyl-(3-sulfamoyl-benzenesulfonyl)-amino)-2-(syn)-hydroxy-propyl)-2-((quinoline-2-carbonyl)-amino)-succinamide] the value was 4 nM; for `CN(C)S(=O)(=O)N(Cc1ccccc1)C[C@@H](O)[C@H](Cc1ccccc1)NC(=O)[C@H](CC(N)=O)NC(=O)c1ccc2ccccc2n1` [Compound 11], 34 nM; for `CC(C)CN(C[C@@H](O)[C@H](Cc1ccccc1)NC(=O)[C@H](CC(N)=O)NC(=O)c1ccc2ccccc2n1)S(=O)(=O)c1cc(S(=O)(=O)c2ccccc2)cs1` [Compound 13, (S)-N-1-(3-((4-Benzenesulfonyl-thiophene-2-sulfonyl)-isobutyl-amino)-(1S,2 syn)-1-benzyl-2-hydroxy-propyl)-2-((quinoline-2-carbonyl)-amino)-succinamide], 0.2 nM.
In the case of `CC(C)CN(C[C@@H](O)[C@H](Cc1ccccc1)NC(=O)[C@H](CC(N)=O)NC(=O)c1ccc2ccccc2n1)S(=O)(=O)c1ccc(F)cc1` [Compound 14, (S)-N-1-(1-(S)-Benzyl-3-((4-fluoro-benzenesulfonyl)-isobutyl-amino)-2-(syn)-hydroxy-propyl)-2-((quinoline-2-carbonyl)-amino)-succinamide] it was 0.1 nM; in that of `CC(=O)Nc1ccc(S(=O)(=O)N(CC(C)C)C[C@@H](O)[C@H](Cc2ccccc2)NC(=O)[C@H](CC(N)=O)NC(=O)c2ccc3ccccc3n2)cc1F` [Compound 15, (S)-N-1-(3-((4-Acetylamino-3-fluoro-benzenesulfonyl)-isobutyl-amino)-(1S,2 syn)-1-benzyl-2-hydroxy-propyl)-2-((quinoline-2-carbonyl)-amino)-succinamide], below 0.1 nM; in that of `CC(=O)Nc1cc(S(=O)(=O)N(CC(C)C)C[C@@H](O)[C@H](Cc2ccccc2)NC(=O)[C@H](CC(N)=O)NC(=O)c2ccc3ccccc3n2)ccc1F` [Compound 16, (S)-N-1-(3-((3-Acetylamino-4-fluoro-benzenesulfonyl)-isobutyl-amino)-(1S,2 syn)-1-benzyl-2-hydroxy-propyl)-2-((quinoline-2-carbonyl)-amino)-succinamide], below 0.1 nM.
`CC(=O)Nc1ccc(S(=O)(=O)N(CC(C)C)C[C@@H](O)[C@H](Cc2ccccc2)NC(=O)[C@H](CC(N)=O)NC(=O)c2ccc3ccccc3n2)cc1` [Compound 17, (S)-N-1-(1-(S)-Benzyl-3-((4-acetylamino-benzenesulfonyl)-isobutyl-amino)-2-(syn)-hydroxy-propyl)-2-((quinoline-2-carbonyl)-amino)-succinamide]: the Ki is below 0.1 nM.
In the case of `CC(=O)Nc1nc(C)c(S(=O)(=O)N(CC(C)C)C[C@@H](O)[C@H](Cc2ccccc2)NC(=O)[C@H](CC(N)=O)NC(=O)c2ccc3ccccc3n2)s1` [Compound 18] it was below 0.1 nM.
In the case of `CC(=O)Nc1cccc(S(=O)(=O)N(CC(C)C)C[C@@H](O)[C@H](Cc2ccccc2)NC(=O)[C@H](CC(N)=O)NC(=O)c2ccc3ccccc3n2)c1` [Compound 19, (S)-N-1-(3-((3-Acetylamino-benzenesulfonyl)-isobutyl-amino)-(1S,2 syn)-1-benzyl-2-hydroxy-propyl)-2-((quinoline-2-carbonyl)-amino)-succinamide] it was below 0.1 nM.
For `CC(C)CN(C[C@@H](O)[C@H](Cc1ccccc1)NC(=O)[C@H](CC(N)=O)NC(=O)c1ccc2ccccc2n1)S(=O)(=O)c1cccc2nonc12` [Compound 20, (S)-N-1-(3-((Benzo(1,2,5)oxadiazole-4-sulfonyl)-isobutyl-amino)-(1S,2 syn)-1-benzyl-2-hydroxy-propyl)-2-((quinoline-2-carbonyl)-amino)-succinamide] the value was 0.1 nM; for `CC(C)CN(C[C@@H](O)[C@H](Cc1ccccc1)NC(=O)[C@H](CC(N)=O)NC(=O)c1ccc2ccccc2n1)S(=O)(=O)N(C)C` [Compound 21, N-1-((1S-2 syn)-1-Benzyl-2-hydroxy-3-(1-isobutyl-3,3-dimethylsulfonylurea)-propyl)-2-((quinoline-2-carbonyl)-amino)-succinamide], 0.7 nM.
`CC(=O)Nc1ccc(S(=O)(=O)N(CC(C)C)C[C@@H](O)[C@H](Cc2ccccc2)NC(=O)[C@@H](NC(=O)OCc2ccccn2)C(C)C)cc1` [Compound 22]: the inhibition constant (Ki) is 1 nM.
As to `CC(C)CN(C[C@@H](O)[C@H](Cc1ccccc1)NC(=O)[C@@H](NC(=O)OCc1ccccn1)C(C)C)S(=O)(=O)N(C)C` [Compound 24], the Ki was determined as 32500 nM.
In the case of `CC(C)CN(C[C@@H](O)[C@H](Cc1ccccc1)NC(=O)[C@@H](NC(=O)OCc1cccnc1)C(C)C)S(=O)(=O)c1cccc2nonc12` [Compound 25] it was 3000 nM; in that of `C=CCOC(=O)N[C@@H](Cc1ccccc1)[C@H](O)CN(CC(C)C)S(=O)(=O)c1ccc(NC(C)=O)cc1` [Compound 27], 8 nM; in that of `CC(=O)Nc1ccc(S(=O)(=O)N(CC(C)C)C[C@@H](O)[C@H](Cc2ccccc2)NC(=O)OCC(C)C)cc1` [Compound 28], 17 nM.
In the case of `CC(=O)Nc1ccc(S(=O)(=O)N(CC(C)C)C[C@@H](O)[C@H](Cc2ccccc2)NC(=O)OC(C)C)cc1` [Compound 29] it was 17 nM; in that of `CC(=O)Nc1ccc(S(=O)(=O)N(CC(C)C)C[C@@H](O)[C@H](Cc2ccccc2)NC(=O)OCCN2CCCC2=O)cc1` [Compound 30], 61 nM; in that of `CC(C)CN(C[C@@H](O)[C@H](Cc1ccccc1)NC(=O)OC(C)(C)C)S(=O)(=O)c1ccc(F)cc1` [Compound 32], 2.5 nM.
In the case of `CC(=O)Nc1ccc(S(=O)(=O)N(CC(C)C)C[C@@H](O)[C@H](Cc2ccccc2)NC(=O)NCc2ccccc2)cc1` [Compound 33] it was 80 nM; in that of `COCCOC(=O)N[C@@H](Cc1ccccc1)[C@H](O)CN(CC(C)C)S(=O)(=O)c1ccc(NC(C)=O)cc1` [Compound 34], 17 nM; in that of `CC(C)CN(C[C@@H](O)[C@H](Cc1ccccc1)NC(=O)O[C@H]1CCOC1)S(=O)(=O)c1ccc(F)cc1` [Compound 35, 4-Fluoro-N-((2 syn,3S)-2-hydroxy-4-phenyl-3-((S)-tetrahydrofuran-3-yloxycarbonylamino)-butyl)-N-isobutyl-benzenesulfonamide], 4 nM.
Consider `C=CCCOC(=O)N[C@@H](Cc1ccccc1)[C@H](O)CN(CC(C)C)S(=O)(=O)c1ccc(NC(C)=O)cc1` [Compound 36], for which the Ki turned out to be 19 nM.
For `CC(C)CN(C[C@@H](O)[C@H](Cc1ccccc1)NC(=O)O[C@H]1CCOC1)S(=O)(=O)c1ccc(Cl)c(Cl)c1` [Compound 37, 3,4-Dichloro-N-((2 syn,3S)-2-hydroxy-4-phenyl-3-((S)-tetrahydrofuran-3-yloxycarbonylamino)-butyl)-N-isobutyl-benzenesulfonamide] the value was 0.1 nM.
In the case of `CC(C)CN(C[C@@H](O)[C@H](Cc1ccccc1)NC(=O)OCc1ccccc1)S(=O)(=O)c1ccc(F)cc1` [Compound 38] it was 1.5 nM; in that of `CC(=O)Nc1ccc(S(=O)(=O)N(CC(C)C)C[C@@H](O)[C@H](Cc2ccccc2)NC(=O)OC(C)(C)C)cc1` [Compound 39], 17 nM; in that of `CC(=O)Nc1ccc(S(=O)(=O)N(CC(C)C)C[C@@H](O)[C@H](Cc2ccccc2)NC(=O)[C@@H]2CC(=O)NC(=O)N2)cc1` [Compound 40], 1100 nM.
In the case of `CC(=O)Nc1ccc(S(=O)(=O)N(CC(C)C)C[C@@H](O)[C@H](Cc2ccccc2)NC(=O)C(=O)NC(C)(C)C)cc1` [Compound 41] it was 220 nM; in that of `CC(=O)Nc1ccc(S(=O)(=O)N(CC(C)C)C[C@@H](O)[C@H](Cc2ccccc2)NC(=O)CCC(N)=O)cc1` [Compound 42], 46 nM; in that of `CC(=O)Nc1ccc(S(=O)(=O)N(CC(C)C)C[C@@H](O)[C@H](Cc2ccccc2)NC(=O)[C@@H]2CCC(=O)N2)cc1` [Compound 43], 4200 nM.

For the origin of these results see patent publication US20080293727A1, “Novel sulfonamide inhibitors of aspartyl protease” (priority 1992, published 2008).
